One assay deals with T1, EphB2-EphrinA5 (Mus musculus, UniProt P54763).
T1 sequence (P54763 19-543 limits assumed): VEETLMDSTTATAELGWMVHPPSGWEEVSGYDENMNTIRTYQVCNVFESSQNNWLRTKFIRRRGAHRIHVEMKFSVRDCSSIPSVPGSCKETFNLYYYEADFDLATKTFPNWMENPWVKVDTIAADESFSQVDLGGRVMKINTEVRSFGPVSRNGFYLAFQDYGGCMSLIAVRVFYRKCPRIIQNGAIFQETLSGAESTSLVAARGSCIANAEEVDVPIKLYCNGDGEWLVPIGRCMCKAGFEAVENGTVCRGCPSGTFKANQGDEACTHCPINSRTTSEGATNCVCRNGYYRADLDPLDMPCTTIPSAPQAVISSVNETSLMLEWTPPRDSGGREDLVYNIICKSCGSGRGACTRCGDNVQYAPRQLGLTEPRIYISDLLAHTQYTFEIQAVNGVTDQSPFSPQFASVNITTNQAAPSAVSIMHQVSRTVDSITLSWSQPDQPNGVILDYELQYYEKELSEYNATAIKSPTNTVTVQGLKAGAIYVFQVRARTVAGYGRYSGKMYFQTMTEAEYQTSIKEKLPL
Put plainly: Octet, immobilized EphB2 binding to human EphrinA5. To be noted: for IC50: mEphB2-hEphrinA5, immobilized mouse EphB2, 50 nM soluble human EphrinA5. As to the method: The Octet system was used to probe the interactions of epitope-tagged human A class proteins, focusing on immobilized EphA3 binding to two of its cognate ligands, EphrinA1 and EphrinA5, as well as EphB2 binding to EphrinA5 (FIG. 27). […] Focusing on the dimerization-driven EphA3-EA5 interaction first (green sensorgram trace), which mimics what is disclosed above for EphB4-EB2, the initial binding of soluble EphrinA5 to the immobilized EphA3 is very fast and strong with a long and steep 84° slope of response that then quickly bends around 35 sec into the association step to form a more gradual tetramerization accumulation slope. […] However, again like the EphB4-EB2 interaction, once placed into dissociation, a significant fraction of the bound EA5 protein melts quickly and the off phase continues downward with a slow gradual decline in bound protein. Although the dissociation was for only 500 sec, the continued downward slope of the response indicates most of the bound EA5 protein would eventually melt off of the immobilized EphA3 protein. This is referred to as a classic dimerization-driven interaction, fast and strong initial binding in the association step but with most of the bound protein coming off in the dissociation due to lack of formation of stable tetramers. EphA3 interacts with EphrinA1 with totally different kinetics/dynamics (orange sensorgram trace). Here, the initial high 84° dimerization slope phase is extremely brief (5 sec) with the binding quickly snapping into a linear tetramerization accumulation phase with a 25° slope, and that once placed into dissociation step almost no bound protein melts, just the small amount that would represent dimer interactions falling off in the first few seconds after being placed into dissociation. […] EphB2 interacting with EA5 is similar to the EphA3-EA1 interaction, in that the association step is characterized by a very brief (5 sec) high 84° slope phase that quickly bends into a more gradual tetramer accumulation phase (blue sensorgram trace). […] The strong initial off phase of the EphB2-EA5 complexes in the dissociation represents both the melting of weak dimers and of the relatively weaker affinity tetramers formed by the cross A/B class EphB2-EA5 molecules. […]
The novel compound A20-I is a halogen replacement that changes the 7-bromine in A20 for iodine and had enhanced tetramerization inhibitor activity (FIGS. 38A-38D). This is evident when comparing results of A20-I and A20 salt compounds on the interaction of immobilized mouse EphB2 ectodomain binding to soluble mouse EphrinB2 ectodomain (FIG. 38A and FIG. 38B) or soluble human EphrinA5 (FIG. 38C). […] During these interactions of immobilized EphB ectodomains binding to soluble EphrinB2, the tetramer is much more surmountable by addition of an active compound than for the reverse experiment where EphrinB2 is immobilized and EphB2 is the soluble component in the assay (see FIG. 11, FIG. 17, and FIG. 25A-FIG. 25C). It is believed that the more resistant unsurmountable tetramer formed by immobilized EphrinB2 binding to soluble EphB ectodomains provides for the most rigorous test for determining IC50 values and thus utilizing this EphrinB2-EphB2 assay for analysis of all compounds, provide uniformity in observed results. The results described herein with A20-I and using the human EphrinB2-EphB2 interaction indicates replacements can be made in the 7-bromine in A20 that lead to enhanced tetramerization inhibitor activity.

The target in the next assay is T2, EphB4-EphrinB2 (Mus musculus, UniProt P54761).
T2 construct: biosensor immobilized rodent EphB1-Fc and EphB4-Fc ectodomain proteins; mouse EB2-His residues 18-232; purchased R&D Systems (EphB-Fc); Sino Biologicals (EphrinB-His)
T2 sequence (P54761 16-539 limits assumed): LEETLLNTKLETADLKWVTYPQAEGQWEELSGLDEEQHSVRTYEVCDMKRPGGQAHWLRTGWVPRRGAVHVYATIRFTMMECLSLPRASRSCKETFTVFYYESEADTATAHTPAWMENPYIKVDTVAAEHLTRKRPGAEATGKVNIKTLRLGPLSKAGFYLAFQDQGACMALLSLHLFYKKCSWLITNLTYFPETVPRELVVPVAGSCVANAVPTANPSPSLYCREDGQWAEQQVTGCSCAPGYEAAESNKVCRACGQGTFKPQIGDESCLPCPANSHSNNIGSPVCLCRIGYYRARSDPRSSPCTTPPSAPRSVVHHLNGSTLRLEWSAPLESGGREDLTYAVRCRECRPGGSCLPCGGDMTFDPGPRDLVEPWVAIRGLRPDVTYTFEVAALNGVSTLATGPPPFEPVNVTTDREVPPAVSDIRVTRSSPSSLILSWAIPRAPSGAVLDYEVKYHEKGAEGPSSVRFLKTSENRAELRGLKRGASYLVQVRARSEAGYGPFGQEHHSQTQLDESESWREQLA
Put plainly: Octet RED384, immobilized mouse EphB4-Fc binding to mouse EB2-His. As to the method: […] Association time was for 400 sec and dissociation time was for 500 sec. Binding assays were conducted in PBS containing 0.05% Tween-20 and 1% DMSO.

Setting [1] is: association, absolute, read-out: Absolute Association IC50.
The mark [2] stands for this setting: association, relative, read-out: Relative Association IC50.
[3] abbreviates: dissociation, absolute, read-out: Absolute Dissociation IC50.
Where [4] appears, read: dissociation, relative, read-out: Relative Dissociation IC50.
[5] abbreviates: mEphB4-mEphrinB2, immobilized mouse EphB4, 50 nM soluble mouse EphrinB2, association, absolute, read-out: Absolute Association IC50.
Setting [6] is: mEphB4-mEphrinB2, immobilized mouse EphB4, 50 nM soluble mouse EphrinB2, association, relative, read-out: Relative Association IC50.
Where [7] appears, read: mEphB4-mEphrinB2, immobilized mouse EphB4, 50 nM soluble mouse EphrinB2, dissociation, absolute, read-out: Absolute Dissociation IC50.
Setting [8] is: mEphB4-mEphrinB2, immobilized mouse EphB4, 50 nM soluble mouse EphrinB2, dissociation, relative, read-out: Relative Dissociation IC50.

The text below walks through data of patent US20260374739A1, “SMALL MOLECULAR WEIGHT CHEMICAL COMPOUND TO ANTAGONIZE EPH-EPHRIN TETRAMERIZATION AND INHIBIT BIDIRECTIONAL SIGNALING” (THE BOARD OF REGENTS OF THE UNIVERSITY OF TEXAS SYSTEM, priority 2022, published 2026).

As a reminder, the IC50 is the point on the concentration scale where inhibition reaches its midpoint.

Several values for one entry are separate records, joined by “and”; a condition that tells them apart may be missing. Identical values can stand only once. Like-named read-outs stand apart in the source and are kept apart here. A value given as a limit tells only on which side of the number the result lay.

Regarding `O=[N+]([O-])c1cc(CN2CCOCC2)c2cccnc2c1O` [Compound 10, 4-((8-hydroxy-7-nitroquinolin-1-ium-5-yl)methyl)morpholin-4-ium chloride], the half-inhibitory concentration (IC50) at EphB2-EphrinA5 (setting [1]) was 4.24 µM; at EphB2-EphrinA5 (setting [2]), 2.9 µM; at EphB2-EphrinA5 (setting [3]), 100 µM; at EphB2-EphrinA5 (setting [4]), 100 µM; at EphB4-EphrinB2 (setting [5]), 100 µM; on EphB4-EphrinB2 (setting [6]) it was 6.38 µM. Besides, the values for the half-maximal inhibitory concentration (IC50) on EphB4-EphrinB2 (setting [7]) and at EphB4-EphrinB2 (setting [8]) were 2.63 µM and 2.38 µM, respectively.

As to `Oc1c(Br)cc(CN2CCOCC2)c2cccnc12` [Compound 6, 4-((7-bromo-8-hydroxyquinolin-1-ium-5-yl)methyl)morpholin-4-ium chloride], the IC50 at EphB2-EphrinA5 (setting [1]) was 0.57 µM; at EphB2-EphrinA5 (setting [3]), below 1 µM; at EphB4-EphrinB2 (setting [5]), 100 µM; on EphB4-EphrinB2 (setting [6]) it was 0.22 µM; on EphB4-EphrinB2 (setting [7]), 0.41 µM; at EphB4-EphrinB2 (setting [8]) it was 0.22 µM.

Take `Oc1ccc(CN2CCOCC2)c2cccnc12` [Compound 1, 5-(morpholinomethyl)quinolin-8-ol]: the IC50 at EphB4-EphrinB2 (setting [5]), on EphB4-EphrinB2 (setting [6]) and at EphB4-EphrinB2 (setting [7]) was 100 µM each time.

In the case of `Oc1c(Br)cc(CN2CCOCC2)c2cccnc12` [Compound 5, 7-bromo-5-(morpholinomethyl)quinolin-8-ol], the “formation of stable tetramers” value at EphB2-EphrinA5 (1 μM) is given as “completely inhibited the formation of stable tetramers”. Also, the IC50 on EphB4-EphrinB2 (EphB4-EB2, read-out: area under the curve IC50) was above 100 µM.

Consider `Oc1c(I)cc(CN2CCOCC2)c2cccnc12` [Compound 8, 4-((8-hydroxy-7-iodoquinolin-1-ium-5-yl)methyl)morpholin-4-ium chloride], for which the IC50 at EphB2-EphrinA5 (setting [1]) was 0.42 µM and 1.59 µM; at EphB2-EphrinA5 (setting [2]) it was 0.22 µM and 0.83 µM; at EphB2-EphrinA5 (setting [3]), 0.09 µM; at EphB2-EphrinA5 (setting [4]) it was 0.08 µM; at EphB4-EphrinB2 (setting [5]) it was > 1.6 µM and 100 µM; on EphB4-EphrinB2 (setting [6]) it was 0.51 µM and 0.34 µM. Also, the IC50 on EphB4-EphrinB2 (setting [7]) is 0.65 µM and 0.68 µM; at EphB4-EphrinB2 (setting [8]), 0.53 µM.

In the case of `Oc1c(Cl)cc(CN2CCOCC2)c2cccnc12` [Compound 4, 4-((7-chloro-8-hydroxyquinolin-1-ium-5-yl)methyl)morpholin-4-ium chloride], the IC50 at EphB2-EphrinA5 (setting [1]) was below 1 µM; at EphB2-EphrinA5 (setting [2]) it was below 1 µM; at EphB2-EphrinA5 (setting [3]), below 1 µM; on EphB2-EphrinA5 (setting [4]), below 1 µM; at EphB4-EphrinB2 (setting [5]), above 10 µM; at EphB4-EphrinB2 (setting [6]) it was 3.19 µM. For the same compound, the values for the IC50 on EphB4-EphrinB2 (setting [7]) and on EphB4-EphrinB2 (setting [8]) were 0.84 µM and 0.53 µM, respectively.

Regarding `Oc1ccc(CN2CCN(Cc3ccc(C(F)(F)F)cc3)CC2)c2cccnc12` [Compound 48, 5-((4-(4-(trifluoromethyl)benzyl)piperazin-1-yl)methyl)quinolin-8-ol], the half-inhibitory concentration (IC50) on EphB2-EphrinA5 (setting [1]) was 8.24 µM; on EphB2-EphrinA5 (setting [2]), above 1 µM; on EphB2-EphrinA5 (setting [3]) it was 1 µM; at EphB2-EphrinA5 (setting [4]), 1 µM; at EphB4-EphrinB2 (setting [6]) it was 8.24 µM; on EphB4-EphrinB2 (setting [8]), 1.89 µM.

Turning to `O=S1(=O)CCN(Cc2ccc(O)c3ncccc23)CC1` [Compound 15, 4-((8-hydroxyquinolin-1-ium-5-yl)methyl)thiomorpholin-4-ium 1,1-dioxide chloride], the IC50 on EphB2-EphrinA5 (setting [1]) was 7.04 µM; at EphB2-EphrinA5 (setting [2]), above 1 µM; at EphB2-EphrinA5 (setting [3]), 8.4 µM; at EphB2-EphrinA5 (setting [4]) it was above 1 µM; on EphB4-EphrinB2 (setting [5]), 100 µM; at EphB4-EphrinB2 (setting [6]) it was above 10 µM. Moreover, the values for the IC50 at EphB4-EphrinB2 (setting [7]) and on EphB4-EphrinB2 (setting [8]) were 13.2 µM and 0.63 µM, respectively.
